Earlier results in patent EP0965341A2 (priority 1998, dated 1999).

System: Atrial Fibrillation-Induced Electrical Remodeling
Conditions: pretreatment before AF; conclusion quoted from Circulation vol. 96, No.5, Sept. 1997

Structure (SMILES): CCN(CC)CCNC(=O)c1ccc(N)cc1 [procainamide]
- acute, AF-induced changes in atrial electrophysiological properties: not
